Laboratory results reported in patent publication US12527753B2, “Cysteamine for the treatment, mitigation and prevention of coronaviral, e.g., SARS-CoV-2, infections” (The Regents of the University of Michigan, priority 2020, dated 2026).
Counter-ions that a name gives are not always drawn. Like-named read-outs stand apart in the source and are kept apart here.

Experiments:
epithelial fibroblasts = settings: concentrations up to 10 μM; cited from earlier work
[1] = system: HTLV-IIIB strain of HIV-1; settings: 100 μM; CEM cells; cited from earlier work
Huh7 cells = test: Cytotoxicity in the Huh7 infectivity assay; format: cell-based; settings: 50, 20, 8, 3, 1.5 micromolar
Procedure: (§1) FIGS. 3A-D. Cysteamine efficacy in the Huh7 cellular infectivity assay with SARS-CoV-2-WA1 strain. Cells are infected at 0.2 MOI and are incubated for 48 hours to allow for the initial infection and propagation to surrounding cells. […] All concentrations of cysteamine (50, 20, 8, 3, 1.5 micromolar) tested were non-cytotoxic indicating an acceptable therapeutic index.

[2] = aqueous 0.1% and 0.5% (10 mM and 50 mM); cited from earlier work
SARS-CoV-2-WA1 strain = test: Huh7 cellular infectivity assay with SARS-CoV-2 (high content bioimaging); format: cell-based; settings: for efficacy in preventing SARS-CoV-2 infection: Huh-7 cells, normalized to infected and uninfected vehicle wells
Procedure: as §1
Experiments were conducted during development of embodiments herein using a fully developed high-content screening pipeline to screen approved drugs against SARS Cov-2, the causative agent of COVID-19. A high throughput screen of FDA-approved drugs was conducted to determine the efficacy in a SARS-CoV-2 infectivity assay. This high content bioimaging-based assay has proven to be highly robust and informative, and clearly differentiates between infected and uninfected cells (FIG. 2). This high-content screen identifies individual agents effective in reducing viral infectivity or replication by imaging individual SARS Cov-2 infected cells. A screen of 1,200 compounds was conducted through the validated assay platform. Remdesivir, a viral replication inhibitor, was selected as a positive control, which results in 100% efficacy.
Cysteamine was evaluated for its antiviral effects at 5 doses with 9 replicates at each dose for a total of 45 independent experiments. Automated image analysis was performed to quantitate the number and percentage of infected cells and that was normalized to the infected and vehicle (DMSO) treated wells and the uninfected and vehicle treated wells representing 0-100% efficacy, as shown on the y-axis dose response plot for cysteamine anti-SARS-CoV-2 (FIG. 3).

[3] = aqueous 0.1% and 0.5%, topical; cited from earlier work
[4] = system: HIV-1 (4 primary isolates and 2 laboratory strains); settings: cited from earlier work
SARS-CoV-2 WA wild type = test: Virus pre-incubation, plaque formation in TMPRSS cells; format: cell-based; settings: Severe acute respiratory syndrome coronavirus 2, 2 h; 5 mM, 120 min incubation

| Molecule | effect on growth rate (epithelial fibroblasts) | inhibition of cytotoxicity [1] | cytotoxicity (Huh7 cells) | safety via the Draize test [2] | viral infection relative to the negative control (SARS-CoV-2-WA1 strain; 8 micromolar, Huh7 cells, 0.2 MOI, 48 hours, syncytia present) | infected cells / nucleocapsid staining (SARS-CoV-2-WA1 strain; 20 micromolar, Huh7 cells, 0.2 MOI, 48 hours) | elimination of SARS-CoV-2 infection (SARS-CoV-2-WA1 strain; 50 micromolar, Huh7 cells, 0.2 MOI, 48 hours) | EC50 (SARS-CoV-2-WA1 strain; Huh7 cells, 0.2 MOI, 48 hours, read-out: EC50 (concentration at 50% effect)) | efficacy in preventing SARS-CoV-2 infection (SARS-CoV-2-WA1 strain) | reduction of corneal cystine crystals [3] | tolerability in chronic use [3] | viral inhibition ([4]; 200 μM, lymphocytes) | viral inhibition ([4]; 100 microM, macrophages) | antiviral effect of combination ([4]; in conjunction with zidovudine or didanosine, without concomitant increases in toxicity) | inhibition at 5000 µM (SARS-CoV-2 WA wild type) |
| --- | --- | --- | --- | --- | --- | --- | --- | --- | --- | --- | --- | --- | --- | --- | --- |
| 2-aminoethanethiol [cysteamine] | no effect on growth rate | 100% | non-cytotoxic | safe | reduced viral infection relative to the negative control | small percentage of infected cells that have a diminished nucleocapsid staining | 100% | ~5 µM | ~100% | effective in reducing the cystine crystals | well-tolerated | More than 90% | More than 90% | additive antiviral effect |  |
| CCC(CC)COC(=O)[C@H](C)N[P@](=O)(OC[C@H]1O[C@@](C#N)(c2ccc3c(N)ncnn23)[C@H](O)[C@@H]1O)Oc1ccccc1 [Remdesivir] |  |  |  |  |  |  |  |  | 100% |  |  |  |  |  |  |
| NCCS [cysteamine HCl] |  |  |  |  |  |  |  |  |  |  |  |  |  |  | 85 to 95% |
